Source: ChEMBL document CHEMBL3862025, “Novel substituted hydrazono indolo[2,1-b]quinazoline-6,12-dione analogues as cytostatic agents: Synthesis, crystal structure, biological evaluation and molecular docking studies” (Bioorg Med Chem Lett, 2016)
Converted amounts (≈) assume the structure as drawn.

How the values were obtained:
Bacillus subtilis = test: Antibacterial activity against Bacillus subtilis after 24 hrs by broth dilution method; type: functional
Klebsiella pneumoniae = test: Antibacterial activity against Klebsiella pneumoniae after 24 hrs by broth dilution method; type: functional
[1] = Cytotoxicity against human HeLa cells assessed as inhibition of cell viability after 48 hrs by MTT assay; type: functional, cell-based
[2] = Cytotoxicity against human MCF7 cells assessed as inhibition of cell viability after 48 hrs by MTT assay; type: functional, cell-based; conditions: MCF7, 48 h
[3] = Antifungal activity against Penicillium notatum by agar streak dilution method; type: functional; conditions: Penicillium chrysogenum
[4] = Cytotoxicity against human A549 cells assessed as inhibition of cell viability after 48 hrs by MTT assay; type: functional, cell-based; conditions: A549, 48 h
Staphylococcus aureus = test: Antibacterial activity against Staphylococcus aureus after 24 hrs by broth dilution method; type: functional
Aspergillus niger = test: Antifungal activity against Aspergillus niger by agar streak dilution method; type: functional
Escherichia coli = test: Antibacterial activity against Escherichia coli after 24 hrs by broth dilution method; type: functional
[5] = Cytotoxicity against HEK293 cells assessed as inhibition of cell viability after 48 hrs by MTT assay; type: toxicity, cell-based; conditions: human

Compound	MIC (Bacillus subtilis)	MIC (Klebsiella pneumoniae)	IC50 [1]	IC50 [2]	MIC [3]	IC50 [4]	MIC (Staphylococcus aureus)	MIC (Aspergillus niger)	MIC (Escherichia coli)	IC50 at 48 h [5]
O=c1c2ccccc2nc2n1-c1ccc(Br)cc1/C2=N/N=C1/C=C(O)CCC1	3.12 µg/mL (≈ 7.18 µM)	6.25 µg/mL (≈ 14.4 µM)	35.8 µM	43.9 µM	6.25 µg/mL (≈ 14.4 µM)	41.7 µM	6.25 µg/mL (≈ 14.4 µM)	6.25 µg/mL (≈ 14.4 µM)	12.5 µg/mL (≈ 28.7 µM)	–
CC1(C)CC(O)=C/C(=N/N=C2/c3cc(Br)ccc3-n3c2nc2ccccc2c3=O)C1	> 100 µg/mL	> 100 µg/mL	39.8 µM	40 µM	> 100 µg/mL	46.3 µM	> 100 µg/mL	100 µg/mL (≈ 216 µM)	> 100 µg/mL	–
COc1ccc2c(c1)/C(=N/N=C(C)C=C(C)O)c1nc3ccccc3c(=O)n1-2	50 µg/mL (≈ 134 µM)	50 µg/mL (≈ 134 µM)	49.1 µM	47.9 µM	100 µg/mL (≈ 267 µM)	46.7 µM	12.5 µg/mL (≈ 33.4 µM)	> 100 µg/mL	50 µg/mL (≈ 134 µM)	–
CCO/C(O)=C/C(C)=N/N=C1/c2ccccc2-n2c1nc1ccccc1c2=O	6.25 µg/mL (≈ 16.7 µM)	12.5 µg/mL (≈ 33.4 µM)	42.9 µM	50.6 µM	25 µg/mL (≈ 66.8 µM)	51.1 µM	6.25 µg/mL (≈ 16.7 µM)	12.5 µg/mL (≈ 33.4 µM)	12.5 µg/mL (≈ 33.4 µM)	–
C/C(O)=C/C(C)=N/N=C1/c2ccccc2-n2c1nc1ccccc1c2=O	25 µg/mL (≈ 72.6 µM)	12.5 µg/mL (≈ 36.3 µM)	44.8 µM	42.1 µM	> 100 µg/mL	43.9 µM	25 µg/mL (≈ 72.6 µM)	> 100 µg/mL	50 µg/mL (≈ 145 µM)	–
CC(C=C(O)c1ccccc1)=N/N=C1/c2cc(Br)ccc2-n2c1nc1ccccc1c2=O	> 100 µg/mL	> 100 µg/mL	10.6 µM	7.14 µM	25 µg/mL (≈ 51.5 µM)	9.18 µM	> 100 µg/mL	25 µg/mL (≈ 51.5 µM)	> 100 µg/mL	46.1 µM
COc1ccc2c(c1)/C(=N/N=C1/C=C(O)CC(C)(C)C1)c1nc3ccccc3c(=O)n1-2	> 100 µg/mL	> 100 µg/mL	56.9 µM	68.7 µM	> 100 µg/mL	67.8 µM	> 100 µg/mL	100 µg/mL (≈ 241 µM)	> 100 µg/mL	–
COc1ccc2c(c1)/C(=N/N=C(C)C=C(O)c1ccccc1)c1nc3ccccc3c(=O)n1-2	> 100 µg/mL	> 100 µg/mL	33.7 µM	31.1 µM	50 µg/mL (≈ 115 µM)	29.3 µM	> 100 µg/mL	25 µg/mL (≈ 57.3 µM)	> 100 µg/mL	–
CC(=O)N1CCN(c2ccc(OCC3COC(Cn4ccnc4)(c4ccc(Cl)cc4Cl)O3)cc2)CC1 (configuration not stated) [KETOCONAZOLE]	–	–	–	–	3.12 µg/mL (≈ 5.88 µM)	–	–	3.12 µg/mL (≈ 5.88 µM)	–	–
COc1ccc2c(c1)/C(=N/N=C1/C=C(O)c3ccccc31)c1nc3ccccc3c(=O)n1-2	3.12 µg/mL (≈ 7.43 µM)	12.5 µg/mL (≈ 29.7 µM)	62.3 µM	60.9 µM	50 µg/mL (≈ 119 µM)	63.5 µM	1.56 µg/mL (≈ 3.72 µM)	50 µg/mL (≈ 119 µM)	6.25 µg/mL (≈ 14.9 µM)	–
O=c1c2ccccc2nc2n1-c1ccccc1/C2=N/N=C1/C=C(O)c2ccccc21	6.25 µg/mL (≈ 16 µM)	1.56 µg/mL (≈ 4 µM)	49.4 µM	50.3 µM	12.5 µg/mL (≈ 32 µM)	56.4 µM	3.12 µg/mL (≈ 8 µM)	6.25 µg/mL (≈ 16 µM)	12.5 µg/mL (≈ 32 µM)	–
N/N=C1/c2cc(Br)ccc2-n2c1nc1ccccc1c2=O	50 µg/mL (≈ 147 µM)	25 µg/mL (≈ 73.3 µM)	22.1 µM	23.2 µM	50 µg/mL (≈ 147 µM)	23.1 µM	> 100 µg/mL	50 µg/mL (≈ 147 µM)	> 100 µg/mL	–
COc1ccc2c(c1)/C(=N/N)c1nc3ccccc3c(=O)n1-2	> 100 µg/mL	> 100 µg/mL	29.2 µM	32.3 µM	50 µg/mL (≈ 171 µM)	31.2 µM	> 100 µg/mL	> 100 µg/mL	> 100 µg/mL	–
N/N=C1/c2ccccc2-n2c1nc1ccccc1c2=O	> 100 µg/mL	50 µg/mL (≈ 191 µM)	25.6 µM	25.2 µM	> 100 µg/mL	28.7 µM	50 µg/mL (≈ 191 µM)	50 µg/mL (≈ 191 µM)	> 100 µg/mL	–
CCO/C(O)=C/C(C)=N/N=C1/c2cc(Br)ccc2-n2c1nc1ccccc1c2=O	3.12 µg/mL (≈ 6.89 µM)	12.5 µg/mL (≈ 27.6 µM)	36.7 µM	36.6 µM	3.12 µg/mL (≈ 6.89 µM)	40 µM	1.56 µg/mL (≈ 3.45 µM)	6.25 µg/mL (≈ 13.8 µM)	6.25 µg/mL (≈ 13.8 µM)	–
CN[C@@H]1[C@H](O[C@H]2[C@H](O[C@H]3[C@H](O)[C@@H](O)[C@H](N=C(N)N)[C@@H](O)[C@@H]3N=C(N)N)O[C@@H](C)[C@]2(O)C=O)O[C@@H](CO)[C@H](O)[C@H]1O [STREPTOMYCIN]	3.12 µg/mL (≈ 5.37 µM)	1.56 µg/mL (≈ 2.69 µM)	–	–	–	–	6.25 µg/mL (≈ 10.7 µM)	–	6.25 µg/mL (≈ 10.7 µM)	–
CCO/C(O)=C/C(C)=N/N=C1/c2cc(OC)ccc2-n2c1nc1ccccc1c2=O	6.25 µg/mL (≈ 15.5 µM)	3.12 µg/mL (≈ 7.73 µM)	58.2 µM	54.5 µM	50 µg/mL (≈ 124 µM)	56.2 µM	6.25 µg/mL (≈ 15.5 µM)	50 µg/mL (≈ 124 µM)	12.5 µg/mL (≈ 30.9 µM)	–
COc1ccc2c(c1)/C(=N/N=C1/C=C(O)CCC1)c1nc3ccccc3c(=O)n1-2	6.25 µg/mL (≈ 16.2 µM)	6.25 µg/mL (≈ 16.2 µM)	32.1 µM	32.7 µM	12.5 µg/mL (≈ 32.3 µM)	36 µM	3.12 µg/mL (≈ 8.09 µM)	100 µg/mL (≈ 259 µM)	12.5 µg/mL (≈ 32.3 µM)	–
CC(O)=CC(C)=N/N=C1/c2cc(Br)ccc2-n2c1nc1ccccc1c2=O	50 µg/mL (≈ 118 µM)	> 100 µg/mL	31.2 µM	33 µM	> 100 µg/mL	31.1 µM	50 µg/mL (≈ 118 µM)	> 100 µg/mL	50 µg/mL (≈ 118 µM)	–
CC(O)=CC(C)=N/N=C1/c2cc(C)cc(C)c2-n2c1nc1ccccc1c2=O	12.5 µg/mL (≈ 33.6 µM)	6.25 µg/mL (≈ 16.8 µM)	42 µM	44.5 µM	100 µg/mL (≈ 269 µM)	46.6 µM	12.5 µg/mL (≈ 33.6 µM)	100 µg/mL (≈ 269 µM)	25 µg/mL (≈ 67.1 µM)	–
O=c1c2ccccc2nc2n1-c1ccccc1/C2=N/N=C1/C=C(O)CCC1	3.12 µg/mL (≈ 8.77 µM)	12.5 µg/mL (≈ 35.1 µM)	23.9 µM	27.9 µM	25 µg/mL (≈ 70.1 µM)	29.8 µM	6.25 µg/mL (≈ 17.5 µM)	12.5 µg/mL (≈ 35.1 µM)	6.25 µg/mL (≈ 17.5 µM)	–
CC1(C)CC(O)=C/C(=N/N=C2/c3ccccc3-n3c2nc2ccccc2c3=O)C1	50 µg/mL (≈ 130 µM)	12.5 µg/mL (≈ 32.5 µM)	59.3 µM	68.8 µM	100 µg/mL (≈ 260 µM)	66.2 µM	50 µg/mL (≈ 130 µM)	100 µg/mL (≈ 260 µM)	50 µg/mL (≈ 130 µM)	–
O=c1c2ccccc2nc2n1-c1ccc(Br)cc1/C2=N/N=C1/C=C(O)c2ccccc21	1.56 µg/mL (≈ 3.33 µM)	3.12 µg/mL (≈ 6.66 µM)	17 µM	15.9 µM	6.25 µg/mL (≈ 13.3 µM)	20.4 µM	1.56 µg/mL (≈ 3.33 µM)	3.12 µg/mL (≈ 6.66 µM)	3.12 µg/mL (≈ 6.66 µM)	55.2 µM
CC(C=C(O)c1ccccc1)=N/N=C1/c2ccccc2-n2c1nc1ccccc1c2=O	> 100 µg/mL	> 100 µg/mL	25.2 µM	26.2 µM	25 µg/mL (≈ 61.5 µM)	17.6 µM	> 100 µg/mL	25 µg/mL (≈ 61.5 µM)	> 100 µg/mL	68.1 µM
